We go through five compounds from publication PMC10105652, “Resistance to ceftazidime-avibactam in a KPC-2–producing Klebsiella pneumoniae caused by the extended-spectrum beta-lactamase VEB-25” (European Journal of Clinical Microbiology & Infectious …, 2023).

Read-outs that look alike come from different tables or passages of the source.

The assay has as its target T1, VEB-1 (Escherichia coli, UniProt Q7BVU7).
T1 construct: gene blaVEB; natural allele amplified and cloned in pCR-Blunt II-TOPO, E. coli Top10; crude extract
Kind of assay: cephalothin hydrolysis, UV […] nm, crude extract. Format: biochemical. Particulars: 100 µM cephalothin, 100 mM sodium phosphate pH 7.0, 3 min preincubation.

As for `NC(=O)[C@@H]1CC[C@@H]2CN1C(=O)N2OS(=O)(=O)O` [avibactam], the IC50 (read-out: AVI) turned out to be 0.9 µM.

Turning to `O=C(O)[C@H]1/C(=C/CO)O[C@@H]2CC(=O)N21` [clavulanic acid], under “read-out: CLA”, the IC50 came out at 0.05 µM. Turning to `O=C(O)C[C@@H]1CC[C@H](NC(=O)Cc2cccs2)B(O)O1` [vaborbactam], the IC50 (read-out: VAB) worked out at 1.1 µM. Take `C[C@]1(Cn2ccnn2)[C@H](C(=O)O)N2C(=O)C[C@H]2S1(=O)=O` [tazobactam]: where the note is “read-out: CLA”, the IC50 worked out at 0.05 µM. Regarding `O=C(NC1CCNCC1)[C@@H]1CC[C@@H]2CN1C(=O)N2OS(=O)(=O)O` [relebactam], the IC50 (read-out: REL) stood at 2.4 µM.
